Data set [1] deals with T1, rat α1β2γ2L type GABAA receptors expressed in Xenopus laevis oocytes (Rattus norvegicus, UniProt P62813+P63138).
T1 construct: expressed in transfected cells; host or cells: Xenopus laevis oocytes
The experiment in a line: Oocyte electrophysiology: potentiation of GABA-mediated chloride currents and direct gating. Type of data set: cell-based. The conditions noted are these: direct current gated by 10 μM compound in absence of GABA; ratio of compound only current/2 μM GABA current.

In the next data set the test system is Tadpole. The experiment in a line: Tadpole loss of righting reflex (LRR) and loss of swimming reflex (LSR). Type of data set: in vivo. The settings on record: ± SEM. Here is the method: Table 3 discloses the anesthetic effects of the compounds of the present disclosure. In particular, the anesthetic effect of the compounds of the present disclosure on Loss of Righting Reflex (LRR) and Loss of Swimming Reflex (LSR).
Methods used are known in the art (see Jiang, X., et al.). Error limits are calculated as standard error of the mean (N=10 or more animals at each of five or more different concentrations).

In data set [2] the target is T1, rat α1β2γ2L type GABAA receptors expressed in Xenopus laevis oocytes. The experiment in a line: Oocyte electrophysiology: potentiation of GABA-mediated chloride currents and direct gating. Type of data set: cell-based. The conditions noted are these: 2 μM GABA, ± SEM, N ≥4; for oocyte electrophysiology 0.1 μM: ratio of currents in presence/absence of 0.1 μM compound; for oocyte electrophysiology 1 μM: ratio of currents in presence/absence of 1 μM compound; for oocyte electrophysiology 10 μM: ratio of currents in presence/absence of 10 μM compound. Here is the method: The compounds of the present disclosure were evaluated for the ability to potentiate chloride currents mediated by 2 μM GABA at rat α1β2γ2L type GABAA receptors expressed in Xenopus laevis oocytes and the results are shown in Table 2.

Data set [3] deals with picrotoxin binding site on GABAA receptors. The experiment in a line: [35S]-TBPS displacement (inhibition of [35S]-TBPS binding). The conditions noted are these: non-competitive displacement; duplicate experiments in triplicate; ± SEM. From the text:
The IC50 values for non-competitive displacers of [^35S]-TBPS from the picrotoxin binding site on GABAA receptors are reported in Table 1.

The mark [4] stands for this setting: loss of righting reflex, read-out: Tadpole LRR EC50.
The mark [5] stands for this setting: loss of swimming reflex, read-out: Tadpole LSR EC50.

Molecules are shown by their SMILES. Read-outs that look alike come from different tables or passages of the source. Bounds are passed on as bounds.

T1 sequence (P62813 28-455): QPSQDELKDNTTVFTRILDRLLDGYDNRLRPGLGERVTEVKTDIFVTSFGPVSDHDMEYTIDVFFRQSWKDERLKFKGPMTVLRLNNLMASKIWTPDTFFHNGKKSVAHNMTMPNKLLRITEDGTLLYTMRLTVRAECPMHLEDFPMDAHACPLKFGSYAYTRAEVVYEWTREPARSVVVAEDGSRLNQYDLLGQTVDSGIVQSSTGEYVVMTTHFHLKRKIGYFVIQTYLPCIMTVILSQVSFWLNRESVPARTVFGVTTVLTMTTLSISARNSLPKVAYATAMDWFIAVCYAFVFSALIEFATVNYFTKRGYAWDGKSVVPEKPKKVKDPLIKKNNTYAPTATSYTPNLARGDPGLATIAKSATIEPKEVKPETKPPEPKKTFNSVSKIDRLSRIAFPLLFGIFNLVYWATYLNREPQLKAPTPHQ
T1 sequence (P63138 26-474): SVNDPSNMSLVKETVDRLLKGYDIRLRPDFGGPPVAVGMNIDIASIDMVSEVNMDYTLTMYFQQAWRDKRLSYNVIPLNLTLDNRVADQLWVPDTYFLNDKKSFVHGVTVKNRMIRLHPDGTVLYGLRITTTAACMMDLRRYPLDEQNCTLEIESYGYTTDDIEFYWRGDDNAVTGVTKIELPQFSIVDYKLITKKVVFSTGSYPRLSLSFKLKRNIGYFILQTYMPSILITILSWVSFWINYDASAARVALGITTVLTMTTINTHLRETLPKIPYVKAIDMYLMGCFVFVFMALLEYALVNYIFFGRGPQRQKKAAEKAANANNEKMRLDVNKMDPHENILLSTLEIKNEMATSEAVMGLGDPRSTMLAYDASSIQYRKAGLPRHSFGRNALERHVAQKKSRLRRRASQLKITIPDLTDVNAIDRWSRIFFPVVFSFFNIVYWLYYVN
T1 sequence (P18508 with tags, fused parts or gaps INS375LLRMFSFK partner): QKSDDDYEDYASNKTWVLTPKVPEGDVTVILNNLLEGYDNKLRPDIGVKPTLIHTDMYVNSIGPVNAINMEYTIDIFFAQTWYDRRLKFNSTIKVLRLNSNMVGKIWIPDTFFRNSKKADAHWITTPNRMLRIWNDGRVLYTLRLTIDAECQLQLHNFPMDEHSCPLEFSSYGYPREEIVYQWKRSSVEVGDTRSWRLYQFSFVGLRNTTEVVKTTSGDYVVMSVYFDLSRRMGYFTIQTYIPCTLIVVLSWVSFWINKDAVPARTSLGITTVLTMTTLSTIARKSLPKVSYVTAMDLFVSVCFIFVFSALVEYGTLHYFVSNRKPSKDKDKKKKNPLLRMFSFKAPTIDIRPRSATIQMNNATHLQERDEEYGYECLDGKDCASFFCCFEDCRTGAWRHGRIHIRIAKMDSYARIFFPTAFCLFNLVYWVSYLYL

Take `COC[C@]12CC[C@@H](O)C[C@@H]1CC[C@@H]1[C@@H]2CC[C@@]2(C)[C@H]1CC[C@@]21CO1` [Compound 12, (3α,5α,17β)-19-Methoxyspiro[androstane-17,2′-oxiran]-3-ol]: the “oocyte electrophysiology (gating) 10 μM” value in data set [1] was 0.14 ± 0.04. Besides, in the data set on Tadpole (setting [4]), the EC50 is 1.73 ± 0.05 µM. The EC50 with Tadpole (setting [5]) was found to be 3.54 ± 2.33 µM. In addition, in data set [2], the “oocyte electrophysiology 0.1 μM” value is 1.24 ± 0.05, the “oocyte electrophysiology 1 μM” value is listed as 7.40 ± 1.43 and the “oocyte electrophysiology 10 μM” value is recorded as 18.7 ± 6.19.
The compound `COC[C@]12CCC(=O)C[C@@H]1CC[C@H]1[C@@H]3CC[C@H](OC)[C@@]3(C)CC[C@@H]12` [Compound 7, (5α,17β)-17,19-Dimethoxyandrostan-3-one] displayed a melting point of 91 to 93 °C. In addition, the “oocyte electrophysiology (gating) 10 μM” value in data set [1] came out at 0.04 ± 0.03. Moreover, the EC50 with Tadpole (setting [4]) is 1.71 ± 0.25 µM. Also, the EC50 in the data set with Tadpole (setting [5]) came to 5.48 ± 0.12 µM. Besides, in data set [2], the “oocyte electrophysiology 0.1 μM” value was found to be 1.00 ± 0, the “oocyte electrophysiology 1 μM” value worked out at 0.85 ± 0.01 and the “oocyte electrophysiology 10 μM” value turned out to be 1.07 ± 0.02.
For the compound `COC[C@]12CC[C@@H](O)C[C@@H]1CC[C@H]1[C@@H]3CC[C@H]([N+](=O)[O-])[C@@]3(C)CC[C@@H]12` [Compound 29, (3α,5α,17β)-19-methoxy-17-nitroandrostan-3-ol], the “oocyte electrophysiology (gating) 10 μM” value in data set [1] turned out to be 0.11 ± 0.01. Further, the EC50 in the data set with Tadpole (setting [4]) was determined as 0.16 ± 0.01 µM. Also, the EC50 in the data set with Tadpole (setting [5]) was 0.55 ± 0.01 µM. Also, in data set [2], the “oocyte electrophysiology 0.1 μM” value amounted to 2.07 ± 0.09, the “oocyte electrophysiology 1 μM” value came to 15.7 ± 1.45 and the “oocyte electrophysiology 10 μM” value is reported as 26.6 ± 4.34.
With `COC[C@]12CC[C@@H](O)C[C@@H]1CC[C@@H]1[C@@H]2CC[C@]2(C)C(C#N)=CC[C@@H]12` [Compound 15, (3α,5α)-3-Hydroxy-19-methoxyandrost-16-ene-17-carbonitrile], the “oocyte electrophysiology (gating) 10 μM” value in data set [1] was 0.10 ± 0.09. In addition, in the data set with Tadpole (setting [4]), the 50% effective concentration (EC50) was 1.22 ± 0.94 µM. The EC50 in the data set on Tadpole (setting [5]) was 2.71 µM. In addition, in data set [2], the “oocyte electrophysiology 0.1 μM” value is recorded as 1.27 ± 0.13, the “oocyte electrophysiology 1 μM” value was 5.34 ± 0.86 and the “oocyte electrophysiology 10 μM” value amounted to 25.6 ± 3.23.
In the case of `COC[C@]12CC[C@@H](O)C[C@@H]1CC[C@H]1[C@@H]3CC[C@H](C#N)[C@@]3(C)CC[C@@H]12` [Compound 16, (3α,5α,17β)-3-Hydroxy-19-methoxyandrostane-17-carbonitrile], the “oocyte electrophysiology (gating) 10 μM” value in data set [1] is 0.25 ± 0.11. The concentration for a half-maximal effect (EC50) with Tadpole (setting [4]) turned out to be 0.36 ± 0.04 µM. Also, the EC50 in the data set on Tadpole (setting [5]) stood at 0.99 ± 0.17 µM. In data set [2], the “oocyte electrophysiology 0.1 μM” value was 1.52 ± 0.02, the “oocyte electrophysiology 1 μM” value is 9.79 ± 0.53 and the “oocyte electrophysiology 10 μM” value is given as 25.7 ± 2.11.
As for `COC[C@]12CC[C@@H](O)C[C@@H]1CC[C@H]1[C@@H]3CC[C@H](OC)[C@@]3(C)CC[C@@H]12` [Compound 8, (5α,17β)-17,19-Dimethoxyandrostan-3-ol], in data set [1], the “oocyte electrophysiology (gating) 10 μM” value was found to be 0.22 ± 0.01. Also, in the data set with Tadpole (setting [4]), the EC50 turned out to be 332 ± 43 µM. For the same compound, in the data set with Tadpole (setting [5]), the concentration for a half-maximal effect (EC50) was 1.07 ± 0.01 µM. Further, in data set [2], the “oocyte electrophysiology 0.1 μM” value was found to be 1.65 ± 0.08, the “oocyte electrophysiology 1 μM” value stood at 7.63 ± 0.77 and the “oocyte electrophysiology 10 μM” value worked out at 20.9 ± 2.73.
Turning to `COC[C@]12CCC(=O)C=C1CC[C@@H]1[C@@H]2CC[C@]2(C)[C@@H](OC)CC[C@@H]12` [Compound 24, (17β)-17,19-Dimethoxyandrost-4-en-3-one], the “oocyte electrophysiology (gating) 10 μM” value in data set [1] was determined as 0.11 ± 0.17. In data set [2], the “oocyte electrophysiology 0.1 μM” value stood at 0.88 ± 0.08, the “oocyte electrophysiology 1 μM” value is 0.63 ± 0.06 and the “oocyte electrophysiology 10 μM” value came out at 1.06 ± 0.17.
The matching figures for `COC[C@]12CC[C@H](O)CC1=CC[C@@H]1[C@@H]2CC[C@]2(C)[C@@H](OC)CC[C@@H]12` [Compound 26, (3β,17β)-17, 19-Dimethoxyandrost-5-en-3-ol]: 0.02 ± 0.02, 0.83 ± 0.03, 0.76 ± 0.02 and 0.78 ± 0.02.
Take `COC[C@]12CC[C@@H](O)C[C@@H]1CC[C@H]1[C@@H]3CC[C@H](C(=O)CO)[C@@]3(C)CC[C@@H]12` [Compound 20, (3α,5α)-3,21-Dihydroxy-19-methoxypregnan-20-one]: the “oocyte electrophysiology (gating) 10 μM” value in data set [1] is on record as 0.09 ± 0.05. For the same compound, the 50% effective concentration (EC50) with Tadpole (setting [4]) was determined as 3.15 ± 0.5 µM. The EC50 with Tadpole (setting [5]) came out at 5.48 ± 0.12 µM. Further, in data set [2], the “oocyte electrophysiology 0.1 μM” value came to 0.98 ± 0.01, the “oocyte electrophysiology 1 μM” value came out at 2.76 ± 0.27 and the “oocyte electrophysiology 10 μM” value is given as 19.0 ± 2.31.
Take `COC[C@]12CCC(O)CC1CC[C@@H]1[C@@H]2CC[C@]2(C)C(=O)CC[C@@H]12` (stereo in doubt) [Compound 30, (3α,5β)-3-Hydroxy-19-methoxyandrostan-17-one]: in the data set with Tadpole (setting [4]), the EC50 was above 10 µM. In data set [2], the “oocyte electrophysiology 0.1 μM” value came to 0.90 ± 0.02, the “oocyte electrophysiology 1 μM” value was determined as 0.88 ± 0.01 and the “oocyte electrophysiology 10 μM” value was 0.84 ± 0.02.
For the compound `COC[C@]12CC[C@@H](O)C[C@@H]1CC[C@@H]1[C@@H]2CC[C@]2(C)C(=O)CC[C@@H]12` [Compound 11, (3α,5α)-3-Hydroxy-19-methoxyandrostan-17-one], the “oocyte electrophysiology (gating) 10 μM” value in data set [1] is given as 0 ± 0.07. Further, in data set [3], the IC50 worked out at 4.3 µM. In the data set on Tadpole (setting [4]), the EC50 was 7.95 ± 3.29 µM. Besides, in the data set on Tadpole (setting [5]), the EC50 was 17.3 ± 0.2 µM. Besides, in data set [2], the “oocyte electrophysiology 0.1 μM” value is 0.71 ± 0.02, the “oocyte electrophysiology 1 μM” value worked out at 0.76 ± 0.07 and the “oocyte electrophysiology 10 μM” value came out at 2.17 ± 0.12.
Regarding `COC[C@]12CC[C@H](O)C[C@@H]1CC[C@H]1[C@@H]3CC[C@H](OC)[C@@]3(C)CC[C@@H]12` [Compound 31, (3β,5α,17β)-17, 19-Dimethoxyandrostan-3-ol], the “oocyte electrophysiology (gating) 10 μM” value in data set [1] is given as 0.02 ± 0. In the data set with Tadpole (setting [4]), the 50% effective concentration (EC50) turned out to be 7.04 ± 1.98 µM. The concentration giving a half-maximal response (EC50) in the data set with Tadpole (setting [5]) is 16.8 ± 5.9 µM. In data set [2], the “oocyte electrophysiology 0.1 μM” value was 0.91 ± 0.02, the “oocyte electrophysiology 1 μM” value is given as 0.97 ± 0.05 and the “oocyte electrophysiology 10 μM” value was determined as 1.10 ± 0.05.
`COC[C@]12CC[C@@H](O)C[C@@H]1CC[C@H]1[C@@H]3CC[C@H](C(C)=O)[C@@]3(C)CC[C@@H]12` [Compound 17, (3α,5α)-3-Hydroxy-19-methoxypregnan-20-one]: the “oocyte electrophysiology (gating) 10 μM” value in data set [1] is 0.23 ± 0.07. Also, the half-maximal effective concentration (EC50) in the data set on Tadpole (setting [4]) stood at 0.36 ± 0.04 µM. For the same compound, the EC50 in the data set on Tadpole (setting [5]) came out at 1.71 ± 0.03 µM. In data set [2], the “oocyte electrophysiology 0.1 μM” value is reported as 2.15 ± 0.19, the “oocyte electrophysiology 1 μM” value came to 12.8 ± 1.74 and the “oocyte electrophysiology 10 μM” value is on record as 33.8 ± 5.44.
As for `COC[C@]12CC[C@@H](O)CC1=CC[C@@H]1[C@@H]2CC[C@]2(C)[C@@H](OC)CC[C@@H]12` [Compound 25, (3α,17β)-17, 19-Dimethoxyandrost-5-en-3-ol], the “oocyte electrophysiology (gating) 10 μM” value in data set [1] is 0.08 ± 0.07. Also, the EC50 with Tadpole (setting [4]) is 3.38 ± 0.38 µM. In the data set with Tadpole (setting [5]), the EC50 is 10.5 µM. Further, in data set [2], the “oocyte electrophysiology 0.1 μM” value was 0.94 ± 0.07, the “oocyte electrophysiology 1 μM” value was determined as 1.97 ± 0.08 and the “oocyte electrophysiology 10 μM” value came to 15.7 ± 0.90.

Source of the values: patent publication US10342809B2, “Neuroactive 19-alkoxy-17-substituted steroids, prodrugs thereof, and methods of treatment using same” (priority 2012, dated 2019).
